Molecules are shown by their SMILES.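 Cells were grown in 96-well plates and exposed to each compound for 48 hours at five concentrations; endpoints were interpolated linearly between bracketing concentrations, or set to the highest concentration if not reached. TGI denotes the concentration required for complete inhibition of growth.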

From PubChem BioAssay (NCI) come the findings set out here.

Among the test systems are MCF7 breast; RPMI-8226 leukemia; SNB-75 CNS; HCT-15 colon; OVCAR-4 ovarian; IGROV1 ovarian; MDA-MB-231 breast; SF-295 CNS; NCI-H226 lung; CCRF-CEM leukemia; HS 578T breast; PC-3 prostate; M14 melanoma; LOX IMVI melanoma; MDA-MB-435; HOP-62 NSCLC; MALME-3M melanoma; A549 NSCLC; SNB-19 CNS.
Common to all, as to experiment: growth of human tumour cells (NCI), 48 h

For `COc1ccc(C(OC(C)=O)C2C(=C(C#N)C#N)c3ccccc3C2=C(C#N)C#N)cc1` (centres undefined), the TGI in the test on MCF7 breast is greater than 100 µM; with RPMI-8226 leukemia, 60.4 µM; in the test with SNB-75 CNS, greater than 100 µM; in the test with HCT-15 colon, greater than 100 µM; in the test on OVCAR-4 ovarian it was greater than 100 µM; in the test on IGROV1 ovarian, greater than 100 µM. Further, the TGI was greater than 100 µM in the test with MDA-MB-231 breast; 64.6 µM in the test on SF-295 CNS; greater than 100 µM with NCI-H226 lung; 62.6 µM with CCRF-CEM leukemia; 91.6 µM with HS 578T breast; 54.3 µM in the test with PC-3 prostate. Besides, the TGI is greater than 100 µM in the test on M14 melanoma, greater than 100 µM in the test on LOX IMVI melanoma, greater than 100 µM in the test on MDA-MB-435 and 62.6 µM in the test on HOP-62 NSCLC.

For the compound `CC(=C\c1ccccc1)/C=C(\C#N)C(N)=O`, the TGI in the test with MCF7 breast, with SNB-75 CNS, with HCT-15 colon, in the test on IGROV1 ovarian, in the test with MDA-MB-231 breast and in the test on SF-295 CNS was greater than 10 µM each time. For the same compound, the TGI with NCI-H226 lung, in the test on HS 578T breast, in the test with MALME-3M melanoma, in the test on PC-3 prostate, in the test with M14 melanoma and in the test with LOX IMVI melanoma was greater than 10 µM throughout. Besides, the TGI in the test on MDA-MB-435 and with HOP-62 NSCLC was greater than 10 µM each time.

As for `CC1C[C@]2(C)C(=O)Nc3ccccc3[C@@H]2Nc2ccccc21` (some centres undefined), the TGI is 84.9 µM in the test on MCF7 breast; 59.5 µM in the test on RPMI-8226 leukemia; greater than 100 µM in the test with SNB-75 CNS; greater than 100 µM with A549 NSCLC; greater than 100 µM with HCT-15 colon; greater than 100 µM with OVCAR-4 ovarian. The TGI is 78.2 µM with IGROV1 ovarian; 36 µM in the test with MDA-MB-231 breast; greater than 100 µM with SF-295 CNS; 76.1 µM with NCI-H226 lung; 63.4 µM in the test on CCRF-CEM leukemia; 72.9 µM in the test with HS 578T breast. The TGI with MALME-3M melanoma is 62 µM; in the test on PC-3 prostate it was 61.3 µM; in the test with M14 melanoma, 55.3 µM; with SNB-19 CNS it was greater than 100 µM; in the test with LOX IMVI melanoma, 30.8 µM; with MDA-MB-435 it was 55.5 µM. This compound showed a TGI with HOP-62 NSCLC of 57.4 µM.

As to `CCOP(=O)(O)C(C)(C)NC`, the TGI in the test on RPMI-8226 leukemia, in the test on A549 NSCLC, in the test with HCT-15 colon, in the test on OVCAR-4 ovarian, with IGROV1 ovarian and with MDA-MB-231 breast was greater than 100 µM in each case. Further, the TGI with SF-295 CNS, with NCI-H226 lung, in the test with CCRF-CEM leukemia, in the test with HS 578T breast, in the test on MALME-3M melanoma and with PC-3 prostate was greater than 100 µM throughout. For the same compound, the TGI with M14 melanoma, in the test on SNB-19 CNS, in the test with LOX IMVI melanoma, in the test on MDA-MB-435 and in the test on HOP-62 NSCLC was greater than 100 µM each time.

On to `Cc1c(O)c(C)c2c(C)cn(C(=O)C(C)(C)C)c2c1C`, for which the TGI in the test with MCF7 breast came out at 20.3 µM; in the test with RPMI-8226 leukemia it was 84.5 µM; with SNB-75 CNS it was 34.1 µM; in the test on A549 NSCLC, 64.7 µM; in the test with HCT-15 colon, 40.6 µM; in the test on OVCAR-4 ovarian, 27 µM. For the same compound, the TGI was 42.2 µM in the test on IGROV1 ovarian; 28.5 µM in the test with MDA-MB-231 breast; 32.9 µM with SF-295 CNS; 33.5 µM in the test with NCI-H226 lung; 55.7 µM with CCRF-CEM leukemia; 77.2 µM with HS 578T breast. The TGI in the test with PC-3 prostate came out at 38.5 µM; in the test on M14 melanoma, 30.5 µM; with SNB-19 CNS, 65.5 µM; in the test on LOX IMVI melanoma, 92.2 µM; in the test on MDA-MB-435, 30.3 µM; with HOP-62 NSCLC it was 31.7 µM.

On to `CC(C)C1=C(Cc2ccccc2)C(=O)O/C1=C\c1cc(Cl)c(O)c(Cl)c1`, for which the TGI in the test on MCF7 breast came out at 83.4 µM; with RPMI-8226 leukemia, 65.6 µM; in the test on SNB-75 CNS it was 36.8 µM; in the test on A549 NSCLC, 50.5 µM; with HCT-15 colon, 39.7 µM; in the test on OVCAR-4 ovarian, 30.1 µM. In addition, the TGI in the test with IGROV1 ovarian was determined as 44.1 µM; in the test with MDA-MB-231 breast it was 33.8 µM; with SF-295 CNS, 30.8 µM; with NCI-H226 lung, 39.5 µM; in the test with CCRF-CEM leukemia, 41.5 µM; in the test on HS 578T breast, 67.7 µM. Further, the TGI amounted to 36.6 µM in the test on MALME-3M melanoma; 31.1 µM with PC-3 prostate; 35.6 µM with M14 melanoma; 37.1 µM in the test on SNB-19 CNS; 34.8 µM in the test with LOX IMVI melanoma; 35.4 µM with MDA-MB-435. Also, the TGI in the test on HOP-62 NSCLC was determined as 42.4 µM.

`CC(C)(C)[Si](C)(C)OC1/C(=C/C#N)C(n2ccc(=O)[nH]c2=O)OC1CO` (centres undefined): the TGI in the test on MCF7 breast, in the test on A549 NSCLC, in the test with OVCAR-4 ovarian, with MDA-MB-231 breast, in the test on SF-295 CNS and in the test with MALME-3M melanoma was greater than 100 µM each time. The TGI in the test on PC-3 prostate, in the test with M14 melanoma, in the test with SNB-19 CNS, in the test with MDA-MB-435 and with HOP-62 NSCLC was greater than 100 µM in each case.

With `CCSc1[nH]c(Nc2nc(-c3ccccc3)n(-c3ccccc3)n2)c(C(N)=O)c1C(N)=O`, the TGI in the test on MCF7 breast, in the test on RPMI-8226 leukemia, with SNB-75 CNS, in the test on A549 NSCLC, in the test on HCT-15 colon and in the test on OVCAR-4 ovarian was greater than 10 µM throughout. Further, the TGI in the test with IGROV1 ovarian, in the test with MDA-MB-231 breast, in the test with SF-295 CNS, in the test on CCRF-CEM leukemia, with MALME-3M melanoma and with PC-3 prostate was greater than 10 µM throughout. The TGI with M14 melanoma, in the test on LOX IMVI melanoma, in the test on MDA-MB-435 and with HOP-62 NSCLC was greater than 10 µM in each case.

For the compound `Cc1cc(OCc2nnc3n2N=C(c2cc(F)c(Cl)cc2Cl)/C(=C/c2ccc(Cl)cc2)S3)ccc1Cl`, the TGI in the test on MCF7 breast was 87.9 µM; with RPMI-8226 leukemia, 33.2 µM; in the test on HCT-15 colon, 63.4 µM; in the test with OVCAR-4 ovarian, 59.8 µM; with IGROV1 ovarian, 52.8 µM; with MDA-MB-231 breast it was greater than 100 µM. Further, the TGI in the test on SF-295 CNS is greater than 100 µM; in the test with NCI-H226 lung it was greater than 100 µM; in the test with CCRF-CEM leukemia, greater than 100 µM; with HS 578T breast it was 46.1 µM; in the test on PC-3 prostate it was 65 µM; with M14 melanoma, 65.5 µM. Moreover, the TGI was 50.1 µM in the test on LOX IMVI melanoma, greater than 100 µM in the test on MDA-MB-435 and greater than 100 µM in the test with HOP-62 NSCLC.

Turning to `CC(CCC#N)(CCC#N)C(=O)CC(O)(C(F)(F)F)C(F)(F)F`, the TGI was found to be 21.2 µM in the test on MCF7 breast; 34.5 µM in the test on SNB-75 CNS; 30.1 µM with A549 NSCLC; 10.6 µM in the test on HCT-15 colon; 8.01 µM in the test on OVCAR-4 ovarian; 29.3 µM in the test with IGROV1 ovarian. The TGI in the test on MDA-MB-231 breast was determined as 14.2 µM; with SF-295 CNS it was 41 µM; with NCI-H226 lung it was 45.3 µM; with CCRF-CEM leukemia, 7.84 µM; with HS 578T breast it was 60.6 µM; with MALME-3M melanoma it was 12 µM. In addition, the TGI in the test with PC-3 prostate came to 28.4 µM; with M14 melanoma, 4.81 µM; with SNB-19 CNS it was 53 µM; with LOX IMVI melanoma, 8.14 µM; in the test on MDA-MB-435, 72.7 µM; with HOP-62 NSCLC it was 38.7 µM.

On to `CCOC(=O)NC1CN2CCC1CC2` (centres undefined), for which the TGI in the test on RPMI-8226 leukemia, with SNB-75 CNS, with A549 NSCLC, in the test with HCT-15 colon, in the test with OVCAR-4 ovarian and with IGROV1 ovarian was greater than 100 µM in each case. For the same compound, the TGI with MDA-MB-231 breast, in the test with SF-295 CNS, with NCI-H226 lung, in the test with CCRF-CEM leukemia, with HS 578T breast and in the test with MALME-3M melanoma was greater than 100 µM each time. In addition, the TGI with PC-3 prostate, in the test with M14 melanoma, in the test with SNB-19 CNS, in the test on LOX IMVI melanoma, in the test with MDA-MB-435 and in the test on HOP-62 NSCLC was greater than 100 µM in each case.

As for `CN1C(=O)C(CC=O)(C(C)(C)C)c2ccccc21` (centres undefined), the TGI in the test on MCF7 breast, in the test on RPMI-8226 leukemia, with SNB-75 CNS, in the test on A549 NSCLC, in the test on HCT-15 colon and with OVCAR-4 ovarian was greater than 100 µM each time. Moreover, the TGI in the test on MDA-MB-231 breast, in the test with SF-295 CNS, in the test with CCRF-CEM leukemia, with HS 578T breast, in the test with PC-3 prostate and with M14 melanoma was greater than 100 µM in each case. Moreover, the TGI in the test on SNB-19 CNS, in the test on LOX IMVI melanoma, in the test with MDA-MB-435 and with HOP-62 NSCLC was greater than 100 µM throughout.

Consider `C#CCN(CC#C)C(=O)C(=O)c1c[nH]c2ccc(OC)cc12`, for which the TGI in the test with MCF7 breast was 34.7 µM; in the test with RPMI-8226 leukemia, 22.4 µM; in the test on SNB-75 CNS it was 55.1 µM; in the test with A549 NSCLC it was 68.5 µM; with HCT-15 colon it was 29.5 µM; in the test on IGROV1 ovarian it was greater than 100 µM. Moreover, the TGI in the test with MDA-MB-231 breast was 31 µM; in the test with SF-295 CNS, 32.5 µM; with NCI-H226 lung it was 38.7 µM; in the test with CCRF-CEM leukemia it was 43.1 µM; with HS 578T breast, 37.6 µM; in the test with MALME-3M melanoma it was 32.7 µM. For the same compound, the TGI was determined as 34.7 µM in the test on M14 melanoma; 36.1 µM in the test with SNB-19 CNS; 33.6 µM in the test on LOX IMVI melanoma; 35.4 µM in the test on MDA-MB-435; 31.3 µM with HOP-62 NSCLC.
